Measurements published in US10807978B2, “Process for preparation of palbociclib” (DR. REDDY'S LABORATORIES LIMITED, priority 2016, dated 2020).

Assay: Surface Area (BET method)
Format: physicochemical
Details: isolated palbociclib free base solid

Row | Surface Area (BET method) | SMILES
1 | 3.61 m^2/g | CC(=O)c1c(C)c2cnc(Nc3ccc(N4CCNCC4)cn3)nc2n(C2CCCC2)c1=O [Example 9, 6-acetyl-8-cyclopentyl-5-methyl-2-{[5-(piperazin-1-yl)pyridin-2yl]amino}-pyrido[2,3-d]pyrimidin-7(8H)-one]
2 | 9.38 m^2/g | CC(=O)c1c(C)c2cnc(Nc3ccc(N4CCNCC4)cn3)nc2n(C2CCCC2)c1=O [Example 11, 6-acetyl-8-cyclopentyl-5-methyl-2-{[5-(piperazin-1-yl)pyridin-2yl]amino}-pyrido[2,3-d]pyrimidin-7(8H)-one]
